Reference: PubChem BioAssay AID248 (DTP/NCI, 2004)
“And” between values parts separate entries of the source, which are not always exact repeats. Equal values may be shown once. Inconclusive results and toxic doses are left out. Cut-off read from the data, not from the text of the source: active = T/C of 150% or more; inactive = T/C below 125%.

Test system: L1210 leukemia ip in BDF1 mice, survival T/C
Assay: NCI In Vivo Anticancer Drug Screen. Data for tumor model L1210 Leukemia (intraperitoneal) in B6D2F1 (BDF1) mice
Details: endpoint: mean survival time, higher = longer survival
Method in brief: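 Antitumor effect is assessed in tumor-bearing animals. Survival in the compound arm is compared with a vehicle-dosed control arm and expressed as their quotient.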

Measured: T/C

NC(Cc1c[nH]c2ccc(N(CCCl)CCCl)cc12)C(=O)O (stereo not given)
active: dose: 0.09 mg/kg/injection, schedule: Q#A X Z (ip), vehicle: acid diluted with saline 167 % of control | dose: 0.13 mg/kg/injection, schedule: Q01DX Z (ip), vehicle: saline 169 % of control | dose: 0.26 mg/kg/injection, schedule: Q01DX Z (ip), vehicle: saline 153 % of control and 157 % of control | dose: 0.39 mg/kg/injection, schedule: Q01DX Z (ip), vehicle: saline 166 % of control | dose: 0.54 mg/kg/injection, schedule: Q01DX Z (ip), vehicle: acid diluted with saline 198 % of control | dose: 0.54 mg/kg/injection, schedule: Q01DX Z (sc), vehicle: acid diluted with saline 160 % of control | dose: 0.58 mg/kg/injection, schedule: Q01DX Z (ip), vehicle: saline 190 % of control | dose: 0.75 mg/kg/injection, schedule: Q01DX009 (ip), vehicle: saline 176 % of control | dose: 0.87 mg/kg/injection, schedule: Q01DX Z (ip), vehicle: saline 211 % of control | dose: 1.0 mg/kg/injection, schedule: Q01DX (oral), vehicle: acid diluted with saline 189 % of control | dose: 1.3 mg/kg/injection, schedule: Q07DX003 (ip), vehicle: acid diluted with saline 155 % of control | dose: 1.5 mg/kg/injection, schedule: Q01DX009 (ip), vehicle: saline 160 % of control and 260 % of control | dose: 1.5 mg/kg/injection, schedule: Q03DX Z (oral), vehicle: acid diluted with saline 183 % of control | dose: 3.75 mg/kg/injection, schedule: Q01DX001 (ip), vehicle: carboxymethylcellulose (CMC) 192 % of control | dose: 5.0 mg/kg/injection, schedule: Q01DX001 (ip), vehicle: saline 295 % of control | dose: 7.5 mg/kg/injection, schedule: Q01DX001 (ip), vehicle: carboxymethylcellulose (CMC) 264 % of control | dose: 10.0 mg/kg/injection, schedule: Q01DX001 (ip), vehicle: saline 270 % of control | dose: 750.0 micrograms/kg/injection, schedule: Q01DX009 (ip), vehicle: saline 207 % of control | dose: 1500.0 micrograms/kg/injection, schedule: Q01DX009 (ip), vehicle: saline 219 % of control
inactive: dose: 0.01 mg/kg/injection, schedule: Q#A X Z (ip), vehicle: acid diluted with saline 124 % of control | dose: 0.02 mg/kg/injection, schedule: Q01DX010 (iv), vehicle: acid diluted with saline 103 % of control | dose: 0.02 mg/kg/injection, schedule: Q01DX Z (ip), vehicle: acid diluted with saline 108 % of control | dose: 0.02 mg/kg/injection, schedule: Q01DX Z (ip), vehicle: saline 119 % of control | dose: 0.02 mg/kg/injection, schedule: Q01DX Z (sc), vehicle: acid diluted with saline 114 % of control | dose: 0.05 mg/kg/injection, schedule: Q07DX Z (ip), vehicle: acid diluted with saline 111 % of control | dose: 0.06 mg/kg/injection, schedule: Q01DX010 (iv), vehicle: acid diluted with saline 108 % of control | dose: 0.06 mg/kg/injection, schedule: Q01DX Z (sc), vehicle: acid diluted with saline 106 % of control | dose: 0.1 mg/kg/injection, schedule: Q03DX Z (oral), vehicle: acid diluted with saline 110 % of control | dose: 0.12 mg/kg/injection, schedule: Q01DX Z (oral), vehicle: acid diluted with saline 102 % of control | dose: 0.12 mg/kg/injection, schedule: Q#A X Z (oral), vehicle: acid diluted with saline 121 % of control | dose: 0.13 mg/kg/injection, schedule: Q01DX Z (oral), vehicle: acid diluted with saline 101 % of control | dose: 0.15 mg/kg/injection, schedule: Q01DX Z (oral), vehicle: saline 96 % of control | dose: 0.16 mg/kg/injection, schedule: Q07DX Z (ip), vehicle: acid diluted with saline 103 % of control | dose: 0.18 mg/kg/injection, schedule: Q01DX009 (ip), vehicle: saline 115 % of control | dose: 0.18 mg/kg/injection, schedule: Q01DX Z (sc), vehicle: acid diluted with saline 120 % of control | dose: 0.19 mg/kg/injection, schedule: Q03DX Z (oral), vehicle: acid diluted with saline 114 % of control | dose: 0.27 mg/kg/injection, schedule: Q#A X Z (ip), vehicle: acid diluted with saline 97 % of control | dose: 0.3 mg/kg/injection, schedule: Q01DX Z (oral), vehicle: saline 100 % of control | dose: 0.38 mg/kg/injection, schedule: Q03DX Z (oral), vehicle: acid diluted with saline 112 % of control | dose: 0.5 mg/kg/injection, schedule: Q03DX Z (oral), vehicle: acid diluted with saline 120 % of control | dose: 0.5 mg/kg/injection, schedule: Q#A X Z (oral), vehicle: acid diluted with saline 107 % of control | dose: 0.6 mg/kg/injection, schedule: Q01DX Z (oral), vehicle: saline 101 % of control | dose: 0.75 mg/kg/injection, schedule: Q03DX Z (oral), vehicle: acid diluted with saline 114 % of control | dose: 0.9 mg/kg/injection, schedule: Q07DX Z (oral), vehicle: acid diluted with saline 114 % of control | dose: 1.0 mg/kg/injection, schedule: Q03DX Z (oral), vehicle: acid diluted with saline 117 % of control | dose: 1.2 mg/kg/injection, schedule: Q01DX Z (oral), vehicle: saline 115 % of control | dose: 1.5 mg/kg/injection, schedule: Q03DX (oral), vehicle: acid diluted with saline 117 % of control | dose: 1.6 mg/kg/injection, schedule: Q01DX Z (sc), vehicle: acid diluted with saline 103 % of control | dose: 1.75 mg/kg/injection, schedule: Q01DX 1 (oral), vehicle: acid diluted with saline 102 % of control and 107 % of control | dose: 1.75 mg/kg/injection, schedule: Q07DX (oral), vehicle: acid diluted with saline 112 % of control | dose: 1.8 mg/kg/injection, schedule: Q07DX Z (oral), vehicle: acid diluted with saline 117 % of control | dose: 1.87 mg/kg/injection, schedule: Q01DX001 (oral), vehicle: carboxymethylcellulose (CMC) 106 % of control | dose: 2.0 mg/kg/injection, schedule: Q01DX (oral), vehicle: acid diluted with saline 102 % of control | dose: 3.5 mg/kg/injection, schedule: Q01DX 1 (oral), vehicle: acid diluted with saline 110 % of control and 124 % of control | dose: 3.5 mg/kg/injection, schedule: Q07DX (oral), vehicle: acid diluted with saline 114 % of control | dose: 3.75 mg/kg/injection, schedule: Q01DX001 (oral), vehicle: carboxymethylcellulose (CMC) 108 % of control | dose: 4.0 mg/kg/injection, schedule: Q01DX (oral), vehicle: acid diluted with saline 106 % of control | dose: 7.0 mg/kg/injection, schedule: Q01DX 1 (oral), vehicle: acid diluted with saline 110 % of control and 124 % of control | dose: 7.0 mg/kg/injection, schedule: Q07DX (oral), vehicle: acid diluted with saline 123 % of control | dose: 7.0 mg/kg/injection, schedule: Q07DX Z (oral), vehicle: acid diluted with saline 116 % of control | dose: 7.5 mg/kg/injection, schedule: Q01DX001 (oral), vehicle: carboxymethylcellulose (CMC) 114 % of control | dose: 8.0 mg/kg/injection, schedule: Q01DX (oral), vehicle: acid diluted with saline 95 % of control | dose: 8.0 mg/kg/injection, schedule: Q03DX Z (oral), vehicle: acid diluted with saline 119 % of control | dose: 14.0 mg/kg/injection, schedule: Q01DX 1 (oral), vehicle: acid diluted with saline 105 % of control and 115 % of control | dose: 14.0 mg/kg/injection, schedule: Q07DX Z (oral), vehicle: acid diluted with saline 107 % of control | dose: 15.0 mg/kg/injection, schedule: Q01DX001 (oral), vehicle: carboxymethylcellulose (CMC) 119 % of control | dose: 16.0 mg/kg/injection, schedule: Q01DX (oral), vehicle: acid diluted with saline 95 % of control | dose: 16.0 mg/kg/injection, schedule: Q01DX Z (oral), vehicle: acid diluted with saline 116 % of control | dose: 20.0 mg/kg/injection, schedule: Q01DX001 (oral), vehicle: saline 119 % of control | dose: 28.0 mg/kg/injection, schedule: Q01DX 1 (oral), vehicle: acid diluted with saline 104 % of control and 118 % of control | dose: 28.0 mg/kg/injection, schedule: Q01DX001 (oral), vehicle: acid diluted with saline 108 % of control and 118 % of control | dose: 28.0 mg/kg/injection, schedule: Q07DX (oral), vehicle: acid diluted with saline 120 % of control | dose: 40.0 mg/kg/injection, schedule: Q01DX001 (oral), vehicle: saline 86 % of control | dose: 56.0 mg/kg/injection, schedule: Q01DX 1 (oral), vehicle: acid diluted with saline 113 % of control and 121 % of control | dose: 56.0 mg/kg/injection, schedule: Q01DX001 (oral), vehicle: acid diluted with saline 117 % of control and 122 % of control | dose: 56.0 mg/kg/injection, schedule: Q07DX (oral), vehicle: acid diluted with saline 123 % of control | dose: 80.0 mg/kg/injection, schedule: Q01DX001 (oral), vehicle: saline 102 % of control | dose: 112.0 mg/kg/injection, schedule: Q01DX001 (oral), vehicle: acid diluted with saline 120 % of control | dose: 168.0 mg/kg/injection, schedule: Q01DX001 (oral), vehicle: acid diluted with saline 122 % of control | dose: 204.0 mg/kg/injection, schedule: Q01DX 1 (oral), vehicle: acid diluted with saline 106 % of control | dose: 204.0 mg/kg/injection, schedule: Q01DX001 (oral), vehicle: acid diluted with saline 107 % of control | dose: 1.0 micrograms/kg/injection, schedule: Q07DX 2 (ip), vehicle: acid diluted with saline 101 % of control | dose: 5.0 micrograms/kg/injection, schedule: Q07DX 2 (ip), vehicle: acid diluted with saline 102 % of control | dose: 16.0 micrograms/kg/injection, schedule: Q07DX 2 (ip), vehicle: acid diluted with saline 117 % of control | dose: 22.0 micrograms/kg/injection, schedule: Q01DX Z (ip), vehicle: saline 104 % of control | dose: 33.0 micrograms/kg/injection, schedule: Q01DX Z (ip), vehicle: saline 107 % of control | dose: 45.0 micrograms/kg/injection, schedule: Q01DX009 (ip), vehicle: saline 109 % of control | dose: 50.0 micrograms/kg/injection, schedule: Q01DX Z (ip), vehicle: saline 107 % of control | dose: 50.0 micrograms/kg/injection, schedule: Q07DX 2 (ip), vehicle: acid diluted with saline 123 % of control | dose: 75.0 micrograms/kg/injection, schedule: Q01DX Z (ip), vehicle: saline 115 % of control
